In ChEMBL document CHEMBL3046757, “Design, synthesis, and biological evaluation of novel pyridine acid esters of podophyllotoxin and esters of 4-demethylepipodophyllotoxin” (2007):

How the values were obtained:
Assay type in all cases: functional
[1] = test system: A549; assay: Growth inhibition of Homo sapiens (human) A549 cells at 10^-5 mol/l after 72 hr by MTT assay; details: A549, 72 h, read-out: GI
[2] = test system: P388; assay: Growth inhibition of Mus musculus (mouse) P388 cells at 10^-5 mol/l after 72 hr by MTT assay; details: P388, 72 h, read-out: GI
[3] = test system: P388; assay: Growth inhibition of Mus musculus (mouse) P388 cells at 10^-8 mol/l after 72 hr by MTT assay; details: P388, 72 h, read-out: GI
[4] = test system: P388; assay: Growth inhibition of Mus musculus (mouse) P388 cells at 10^-4 mol/l after 72 hr by MTT assay; details: P388, 72 h, read-out: GI
[5] = test system: A549; assay: Growth inhibition of Homo sapiens (human) A549 cells at 10^-4 mol/l after 72 hr by MTT assay; details: A549, 72 h, read-out: GI
[6] = test system: P388; assay: Growth inhibition of Mus musculus (mouse) P388 cells at 10^-6 mol/l after 72 hr by MTT assay; details: P388, 72 h, read-out: GI
[7] = test system: P388; assay: Growth inhibition of Mus musculus (mouse) P388 cells at 10^-7 mol/l after 72 hr by MTT assay; details: P388, 72 h, read-out: GI
[8] = test system: A549; assay: Growth inhibition of Homo sapiens (human) A549 cells at 10^-7 mol/l after 72 hr by MTT assay; details: A549, 72 h, read-out: GI
[9] = test system: A549; assay: Growth inhibition of Homo sapiens (human) A549 cells at 10^-8 mol/l after 72 hr by MTT assay; details: A549, 72 h, read-out: GI
[10] = test system: A549; assay: Growth inhibition of Homo sapiens (human) A549 cells at 10^-6 mol/l after 72 hr by MTT assay; details: A549, 72 h, read-out: GI

Compound	inhibition of growth at 10 µM [1] [%]	inhibition of growth at 10 µM [2] [%]	inhibition of growth at 0.01 µM [3] [%]	inhibition of growth at 100 µM [4] [%]	inhibition of growth at 100 µM [5] [%]	inhibition of growth at 1 µM [6] [%]	inhibition of growth at 0.1 µM [7] [%]	inhibition of growth at 0.1 µM [8] [%]	inhibition of growth at 0.01 µM [9] [%]	inhibition of growth at 1 µM [10] [%]
COc1cc([C@@H]2c3cc4c(cc3[C@H](OC(=O)c3cccnc3Cl)[C@H]3COC(=O)[C@H]23)OCO4)cc(OC)c1OC [4-O-PODOPHYLLOTOXINYL-2'-CHLORONICOTINATE]	82.5	85.8	80.6	87.3	86.6	85	84.7	80.4	79.5	81.3
COc1cc([C@@H]2c3cc4c(cc3[C@H](OC(=O)c3cncc(Br)c3)[C@H]3COC(=O)[C@H]23)OCO4)cc(OC)c1OC [4-O-PODOPHYLLOTOXINYL-5'-BROMONICOTINATE]	84.7	87.4	80.6	97.7	91.1	85	82.8	80.9	77.3	82.7
COc1cc([C@@H]2c3cc4c(cc3[C@H](OC(=O)c3ccc(Cl)nc3)[C@H]3COC(=O)[C@H]23)OCO4)cc(OC)c1OC [4-O-PODOPHYLLOTOXINYL-6'-CHLORONICOTINATE]	87	88.3	80.1	92.1	87.9	85	84.3	83	81.5	85.9
COc1cc([C@@H]2c3cc4c(cc3[C@H](OC(=O)c3ccncc3)[C@H]3COC(=O)[C@H]23)OCO4)cc(OC)c1OC [4-O-PODOPHYLLOTOXINYL-ISONICOTINATE]	84.4	85.1	83.8	89	89.2	84.8	84.8	81.8	81.4	82.6
COc1cc([C@@H]2c3cc4c(cc3[C@H](OC(=O)c3cccnc3)[C@H]3COC(=O)[C@H]23)OCO4)cc(OC)c1OC [4-O-PODOPHYLLOTOXINYL-NICOTINATE]	84.9	84.8	83.4	87.5	87.5	84.1	83.8	82.2	81	82.8
COc1cc([C@@H]2c3cc4c(cc3[C@H](OC(=O)c3ccccn3)[C@H]3COC(=O)[C@H]23)OCO4)cc(OC)c1OC [4-O-PODOPHYLLOTOXINYL-PICOLINATE]	84	87	85.4	87.7	89.2	86	85.5	81.8	81.4	82.3
COc1cc([C@@H]2c3cc4c(cc3[C@@H](O[C@@H]3O[C@@H]5CO[C@@H](C)O[C@H]5[C@H](O)[C@H]3O)[C@H]3COC(=O)[C@H]23)OCO4)cc(OC)c1O [ETOPOSIDE]	50.7	70.6	1.8	99.2	97.5	25.5	6	0	0	45
